# Data as given in US5668152A, “Protein kinase C inhibitors” (priority 1995, dated 1997).
# Read-outs that look alike come from different tables or passages of the source.
# Experiments:
# protein kinase C eta = protein kinase C eta (Homo sapiens, UniProt P24723); assay: PKC Enzyme assay, eta isozyme; format: biochemical
# Description: (§1) PKC enzymes=alpha, beta I, beta II, gamma, delta, epsilon, eta and zeta.
# (§2) Assay components in a total volume of 250 μL are the following:
# (§3) Vesicles consisting of 120 μg/mL phosphatidylserine (Avanti Polar Lipids) and sufficient diacylglycerol (Avanti Polar Lipids) to activate the enzyme to maximum activity in 20 mM HEPES buffer (Sigma, St. Louis, Mo.), pH 7.5, 940 μM calcium chloride (Sigma, St. Louis, Mo.) for assaying the alpha, beta I, beta II and gamma enzyme only, 1 mM EGTA for all the enzymes, 10 mM magnesium chloride (Sigma, St. Louis, Mo.) and 30 μM (gamma-32P) ATP (DuPont). For all the enzymes either histone type HL (Worthington) or myelin basic protein is used as substrate. The assay is started by addition of protein kinase C enzyme incubated at 30° C. for 10 minutes and stopped by adding 0.5 mL of cold trichloroacetic acid (Amresco) followed by 100 μL of 1 mg/mL bovine serum albumin (Sigma, St. Louis, Mo.). The precipitate is collected by vacuum filtration on glass fiber filters employing a TOMTEC™ filtration system and quantified by counting in a beta scintillation counter.
# protein kinase C beta-2 = protein kinase C beta-2 (Homo sapiens, UniProt P05771); assay: PKC Enzyme assay, beta II isozyme; format: biochemical
# Description: as §1, §2, §3
# protein kinase C alpha = protein kinase C alpha (Homo sapiens, UniProt P17252); assay: PKC Enzyme assay, alpha isozyme; format: biochemical
# Description: as §1, §2, §3
# protein kinase C zeta = molecular target: T1, protein kinase C zeta (Homo sapiens, UniProt Q05513); assay: PKC Enzyme assay, zeta isozyme; format: biochemical
# T1 sequence (Q05513 1-592): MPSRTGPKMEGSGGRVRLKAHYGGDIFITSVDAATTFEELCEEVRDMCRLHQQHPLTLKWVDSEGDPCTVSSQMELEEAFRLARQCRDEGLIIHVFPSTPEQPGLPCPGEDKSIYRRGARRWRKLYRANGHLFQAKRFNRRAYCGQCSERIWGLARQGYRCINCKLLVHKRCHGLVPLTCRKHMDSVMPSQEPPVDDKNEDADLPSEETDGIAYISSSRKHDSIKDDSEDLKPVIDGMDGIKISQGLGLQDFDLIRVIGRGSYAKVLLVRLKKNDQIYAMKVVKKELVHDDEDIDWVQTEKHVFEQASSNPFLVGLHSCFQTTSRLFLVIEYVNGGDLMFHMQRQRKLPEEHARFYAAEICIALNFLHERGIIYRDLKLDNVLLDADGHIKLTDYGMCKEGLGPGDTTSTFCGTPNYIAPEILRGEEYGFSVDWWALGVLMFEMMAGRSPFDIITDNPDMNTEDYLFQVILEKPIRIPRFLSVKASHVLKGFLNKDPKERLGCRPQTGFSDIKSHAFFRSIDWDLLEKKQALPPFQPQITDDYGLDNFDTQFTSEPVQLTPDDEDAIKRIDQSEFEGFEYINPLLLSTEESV
# Description: as §1, §2, §3
# protein kinase C beta-1 = protein kinase C beta-1 (Homo sapiens, UniProt P05771); assay: PKC Enzyme assay, beta I isozyme; format: biochemical
# Description: as §1, §2, §3
# protein kinase C delta = protein kinase C delta (Homo sapiens, UniProt Q05655); assay: biochemical
# Description: as §1, §2, §3
# protein kinase C gamma = protein kinase C gamma (Homo sapiens, UniProt P05129); assay: PKC Enzyme assay, gamma isozyme; format: biochemical
# Description: as §1, §2, §3
# protein kinase C epsilon = molecular target: T2, protein kinase C epsilon (Homo sapiens, UniProt Q02156); assay: PKC Enzyme assay, epsilon isozyme; format: biochemical
# T2 sequence (Q02156 1-737): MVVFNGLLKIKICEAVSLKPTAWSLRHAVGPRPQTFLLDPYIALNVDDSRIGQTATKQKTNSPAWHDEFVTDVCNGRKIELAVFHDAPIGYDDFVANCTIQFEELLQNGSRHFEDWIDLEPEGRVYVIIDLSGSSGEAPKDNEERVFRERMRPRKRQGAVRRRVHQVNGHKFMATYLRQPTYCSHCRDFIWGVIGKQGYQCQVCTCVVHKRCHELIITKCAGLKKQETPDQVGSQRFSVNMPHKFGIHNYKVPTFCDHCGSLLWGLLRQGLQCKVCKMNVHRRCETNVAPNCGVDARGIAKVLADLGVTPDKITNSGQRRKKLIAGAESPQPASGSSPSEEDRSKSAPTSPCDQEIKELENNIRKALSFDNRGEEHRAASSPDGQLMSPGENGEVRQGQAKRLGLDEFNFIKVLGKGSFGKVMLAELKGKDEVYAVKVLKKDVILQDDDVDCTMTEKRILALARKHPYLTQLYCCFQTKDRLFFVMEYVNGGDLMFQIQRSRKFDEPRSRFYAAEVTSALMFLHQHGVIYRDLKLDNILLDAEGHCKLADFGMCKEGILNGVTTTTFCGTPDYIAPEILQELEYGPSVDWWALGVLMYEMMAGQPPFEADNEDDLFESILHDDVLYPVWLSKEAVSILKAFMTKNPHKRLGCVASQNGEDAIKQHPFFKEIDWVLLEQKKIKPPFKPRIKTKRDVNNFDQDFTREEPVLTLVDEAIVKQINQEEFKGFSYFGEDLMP
# Description: as §1, §2, §3
# [1] = PKC eta, 30 μM ATP, 30° C., 10 minutes, read-out: IC50 η
# [2] = PKC beta-2, 30 μM ATP, 30° C., 10 minutes, read-out: IC50 β2
# [3] = PKC alpha, 30 μM ATP, 30° C., 10 minutes, read-out: IC50 α
# [4] = PKC zeta, 30 μM ATP, 30° C., 10 minutes, read-out: IC50 ζ
# [5] = PKC beta-1, 30 μM ATP, 30° C., 10 minutes, read-out: IC50 β1
# [6] = PKC delta, 30 μM ATP, 30° C., 10 minutes, read-out: IC50 δ
# [7] = PKC gamma, 30 μM ATP, 30° C., 10 minutes, read-out: IC50 γ
# [8] = PKC epsilon, 30 μM ATP, 30° C., 10 minutes, read-out: IC50 ε
# Chain of protein kinase C beta-1 (P05771 whole entry): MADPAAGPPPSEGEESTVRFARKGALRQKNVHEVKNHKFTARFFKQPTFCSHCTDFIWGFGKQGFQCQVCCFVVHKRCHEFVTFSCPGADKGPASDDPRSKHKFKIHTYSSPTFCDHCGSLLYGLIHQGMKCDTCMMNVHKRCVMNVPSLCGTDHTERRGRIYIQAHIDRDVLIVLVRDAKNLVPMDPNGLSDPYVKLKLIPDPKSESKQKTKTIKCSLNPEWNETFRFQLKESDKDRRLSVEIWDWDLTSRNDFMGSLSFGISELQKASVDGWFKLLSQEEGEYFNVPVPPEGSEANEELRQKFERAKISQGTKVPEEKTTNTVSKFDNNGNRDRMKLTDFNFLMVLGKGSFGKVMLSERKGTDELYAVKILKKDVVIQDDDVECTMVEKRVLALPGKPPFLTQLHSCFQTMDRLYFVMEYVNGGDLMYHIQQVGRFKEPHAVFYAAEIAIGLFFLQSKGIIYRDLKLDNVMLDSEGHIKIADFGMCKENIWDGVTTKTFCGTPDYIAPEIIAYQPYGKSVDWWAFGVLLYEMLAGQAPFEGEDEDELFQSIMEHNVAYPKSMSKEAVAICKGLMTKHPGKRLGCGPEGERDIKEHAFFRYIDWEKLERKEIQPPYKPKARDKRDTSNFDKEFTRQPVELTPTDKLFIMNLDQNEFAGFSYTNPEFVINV
# Chain of protein kinase C beta-2 (P05771 1-673 isoform P05771-2): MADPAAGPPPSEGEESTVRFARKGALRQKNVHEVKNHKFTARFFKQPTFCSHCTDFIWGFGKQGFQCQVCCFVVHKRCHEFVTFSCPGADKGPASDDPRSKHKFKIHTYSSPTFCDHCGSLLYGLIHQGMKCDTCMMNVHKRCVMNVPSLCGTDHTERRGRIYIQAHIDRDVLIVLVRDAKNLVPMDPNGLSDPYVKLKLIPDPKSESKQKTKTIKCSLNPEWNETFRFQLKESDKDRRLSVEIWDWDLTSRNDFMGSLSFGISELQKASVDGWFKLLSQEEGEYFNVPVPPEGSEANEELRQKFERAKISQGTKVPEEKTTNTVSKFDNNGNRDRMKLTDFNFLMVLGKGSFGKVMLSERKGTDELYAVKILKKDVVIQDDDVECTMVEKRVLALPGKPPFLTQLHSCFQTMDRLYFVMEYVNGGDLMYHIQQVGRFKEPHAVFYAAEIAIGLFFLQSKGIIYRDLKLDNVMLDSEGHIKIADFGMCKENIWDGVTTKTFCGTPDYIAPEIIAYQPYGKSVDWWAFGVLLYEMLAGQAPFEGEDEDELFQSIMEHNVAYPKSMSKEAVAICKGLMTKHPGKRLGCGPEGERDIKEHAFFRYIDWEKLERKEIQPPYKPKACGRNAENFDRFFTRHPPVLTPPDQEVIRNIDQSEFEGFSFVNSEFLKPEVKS
# Chain of protein kinase C delta (Q05655 whole entry): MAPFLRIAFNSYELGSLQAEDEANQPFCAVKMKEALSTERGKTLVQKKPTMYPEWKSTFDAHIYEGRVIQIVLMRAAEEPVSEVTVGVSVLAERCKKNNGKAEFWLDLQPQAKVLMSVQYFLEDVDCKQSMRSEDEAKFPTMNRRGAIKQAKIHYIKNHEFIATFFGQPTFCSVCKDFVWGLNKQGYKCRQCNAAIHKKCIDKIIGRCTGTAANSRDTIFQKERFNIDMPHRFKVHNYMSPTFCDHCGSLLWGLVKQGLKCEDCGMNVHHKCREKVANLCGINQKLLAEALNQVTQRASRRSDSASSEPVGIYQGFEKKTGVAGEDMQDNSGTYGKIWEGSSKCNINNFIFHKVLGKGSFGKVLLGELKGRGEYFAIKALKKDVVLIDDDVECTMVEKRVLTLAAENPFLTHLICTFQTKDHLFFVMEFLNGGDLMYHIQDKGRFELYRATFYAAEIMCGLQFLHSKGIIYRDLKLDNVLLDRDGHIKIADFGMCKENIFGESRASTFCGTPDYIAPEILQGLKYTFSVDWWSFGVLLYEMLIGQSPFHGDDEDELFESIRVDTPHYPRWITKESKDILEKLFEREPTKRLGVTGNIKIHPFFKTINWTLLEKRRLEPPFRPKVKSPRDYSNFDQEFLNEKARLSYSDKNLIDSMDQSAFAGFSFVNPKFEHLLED
# Chain of protein kinase C eta (P24723 whole entry): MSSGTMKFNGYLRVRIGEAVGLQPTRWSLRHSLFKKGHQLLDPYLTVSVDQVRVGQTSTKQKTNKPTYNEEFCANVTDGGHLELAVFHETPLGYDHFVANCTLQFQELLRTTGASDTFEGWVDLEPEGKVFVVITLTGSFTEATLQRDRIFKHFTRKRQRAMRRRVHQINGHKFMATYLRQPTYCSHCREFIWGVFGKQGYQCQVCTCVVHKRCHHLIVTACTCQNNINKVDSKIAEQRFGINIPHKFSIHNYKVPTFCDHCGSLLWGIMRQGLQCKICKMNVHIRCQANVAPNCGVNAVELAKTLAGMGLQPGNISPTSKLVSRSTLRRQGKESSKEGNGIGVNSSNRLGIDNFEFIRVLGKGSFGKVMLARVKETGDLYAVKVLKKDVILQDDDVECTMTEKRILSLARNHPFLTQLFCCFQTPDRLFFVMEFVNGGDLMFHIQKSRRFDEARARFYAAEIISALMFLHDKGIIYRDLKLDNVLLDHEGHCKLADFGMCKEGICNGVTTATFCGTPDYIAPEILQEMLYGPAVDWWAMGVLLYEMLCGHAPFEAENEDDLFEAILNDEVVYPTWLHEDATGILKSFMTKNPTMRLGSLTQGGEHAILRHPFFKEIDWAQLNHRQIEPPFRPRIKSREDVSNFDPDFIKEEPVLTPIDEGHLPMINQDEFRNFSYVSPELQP
Structure (SMILES),IC50 (protein kinase C eta; [1]),IC50 (protein kinase C beta-2; [2]),IC50 (protein kinase C alpha; [3]),IC50 (protein kinase C zeta; [4]),IC50 (protein kinase C beta-1; [5]),IC50 (protein kinase C delta; [6]),IC50 (protein kinase C gamma; [7]),IC50 (protein kinase C epsilon; [8]),IC50 (protein kinase C eta),IC50 (protein kinase C beta-2),IC50 (protein kinase C alpha),IC50 (protein kinase C beta-1),IC50 (protein kinase C delta),IC50 (protein kinase C gamma),IC50 (protein kinase C epsilon),IC50 (protein kinase C zeta)
"CC(=O)OCC1(COC(C)=O)CCn2c(c(C3=C(c4cn(C)c5ccccc45)C(=O)NC3=O)c3ccccc32)C1 [Example 1, 3-[8,8-bis(acetoxymethylene)-6,7,8,9-tetrahydropyrido[1,2-a]indol-10-yl]-4-(1-methyl-3-indolyl)-1H-pyrrole-2,5-dione]",121000 nM,300 nM,9800 nM,50000 nM,360 nM,47000 nM,38000 nM,150000 nM,–,–,–,–,–,–,–,–
"Cn1cc(C2=C(c3c4n(c5ccccc35)CCC(CO)(CO)C4)C(=O)NC2=O)c2ccccc21 [Example 2, 3-[8,8-bis(hydroxymethylene)-6,7,8,9-tetrahydropyrido[1,2-a]indol-10-yl]-4-(1-methyl-3-indolyl)-1H-pyrrole-2,5-dione]",5700 nM,60 nM,3500 nM,33000 nM,70 nM,6800 nM,8800 nM,31800 nM,–,–,–,–,–,–,–,–
CC(=O)NC[C@H]1O[C@H](OCCn2cc(C3=C(c4cn(C)c5ccccc45)C(=O)NC3=O)c3ccccc32)C[C@@H]1O [Example 3],1100 nM,25 nM,320 nM,46000 nM,36 nM,410 nM,4400 nM,600 nM,–,–,–,–,–,–,–,–
"Cn1cc(C2=C(c3cn(C4CCN(Cc5ccccc5)CC4)c4ccccc34)C(=O)NC2=O)c2ccccc21 [Example 4, 3-(1-[4-(1-benzyl)-piperidinyl]-3-indolyl)-4-(1-methyl-3-indolyl)-1H-pyrrole-2,5-dione]",500 nM,30 nM,6000 nM,–,50 nM,6000 nM,7000 nM,4000 nM,–,–,–,–,–,–,–,–
"Cn1cc(C2=C(c3cn(C4CCN(C(=NC(=O)OC(C)(C)C)NC(=O)OC(C)(C)C)CC4)c4ccccc34)C(=O)NC2=O)c2ccccc21 [Example 5, [t-Butoxycarbonylimino-(4-{3-[4-(1-methyl-1H-indol-3-yl)-2,5-dioxo-2,5-dihydro-1H-pyrrole-3-yl]-indol-1-yl}-piperidin-1-yl)-methyl]-carbamic acid t-butyl ester]",150 nM,29 nM,370 nM,42000 nM,44 nM,470 nM,500 nM,2600 nM,–,–,–,–,–,–,–,–
"Cn1cc(C2=C(c3cn(C4CCN(C(=O)OC(C)(C)C)CC4)c4ccccc34)C(=O)NC2=O)c2ccccc21 [Example 6, 3-(1-[4-(1-t-butoxycarbonyl)-piperidinyl]-3-indolyl)-4-(1-methyl-3-indolyl)-1H-pyrrole-2,5-dione]",–,–,–,–,–,–,–,–,300 nM,82 nM,6100 nM,220 nM,7300 nM,5300 nM,4400 nM,–
CC(C)(C)OC(=O)N1CCC(n2cc(C3=C(c4c[nH]c5ccccc45)C(=O)NC3=O)c3ccccc32)CC1 [Example 7],6200 nM,100 nM,3300 nM,31000 nM,230 nM,4100 nM,2800 nM,6300 nM,–,–,–,–,–,–,–,–
"CC(C)N1CCC(n2cc(C3=C(c4cn(C)c5ccccc45)C(=O)NC3=O)c3ccccc32)CC1 [Example 8, 3-[1-(1-i-Propyl-piperidin-4-yl)-1H-indol-3-yl]-4-(1-methyl-1H-indol-3-yl)-pyrrole-2,5-dione]",130 nM,26 nM,340 nM,9300 nM,19 nM,970 nM,1300 nM,390 nM,–,–,–,–,–,–,–,–
"Cn1cc(C2=C(c3c4n(c5ccccc35)CCC(CO)C4)C(=O)NC2=O)c2ccccc21 (stereo not drawn) [Example 9, 3-[8-(Hydroxymethyl)-6,7,8,9-tetrahydropyrido[1,2-a]indol-10-yl]-4-(1-methyl-3-indolyl)-1H-pyrrole-2,5 dione]",400 nM,6.1 nM,270 nM,9260 nM,14 nM,440 nM,1500 nM,3800 nM,–,–,–,–,–,–,–,–
CN(C)CCCn1cc(C2=C(c3c[nH]c4ccccc34)C(=O)NC2=O)c2ccccc21 [Example 10],–,–,–,–,–,–,–,–,90 nM,50 nM,660 nM,50 nM,920 nM,1040 nM,930 nM,23000 nM
CN(C)CCCn1cc(C2=C(c3cn(C)c4ccccc34)C(=O)NC2=O)c2ccccc21 [Example 13],470 nM,–,–,25000 nM,–,930 nM,1700 nM,3600 nM,–,60 nM,–,140 nM,–,–,–,–
"CCN1CCC(n2cc(C3=C(c4cn(C)c5ccccc45)C(=O)NC3=O)c3ccccc32)CC1 [Example 40, 3-[1-(1-Ethyl-piperidin-4-yl)-indol-3-yl]-4-(1-methyl-indol-3-yl)-pyrrole-2,5-dione]",40 nM,5 nM,400 nM,–,20 nM,300 nM,300 nM,400 nM,–,–,–,–,–,–,–,–
Cn1cc(C2=C(c3cn(C4CCN(Cc5ccccn5)CC4)c4ccccc34)C(=O)NC2=O)c2ccccc21 [Example 49],–,–,–,8000 nM,–,–,2000 nM,300 nM,–,–,–,–,–,–,–,–
Cn1cc(C2=C(c3cn(C4CCNCC4)c4ccccc34)C(=O)NC2=O)c2ccccc21 [Example 52],200 nM,–,–,4000 nM,–,–,–,1000 nM,–,–,–,–,–,–,–,–
Cn1cc(C2=C(c3cn(CCO[C@@H]4O[C@H](CN=[N+]=[N-])[C@H](O)[C@H](O)[C@H]4O)c4ccccc34)C(=O)NC2=O)c2ccccc21 [Example 57],4000 nM,360 nM,10000 nM,> 100000 nM,1600 nM,9000 nM,–,> 100000 nM,–,–,–,–,–,–,–,–
Cn1cc(C2=C(c3cn(CCO[C@H]4O[C@H](CN)[C@H](O)[C@H](O)[C@H]4O)c4ccccc34)C(=O)NC2=O)c2ccccc21 [Example 65],3400 nM,–,8100 nM,47000 nM,390 nM,8400 nM,30000 nM,–,–,–,–,–,–,–,–,–
Cn1cc(C2=C(c3cn(CCOC4OC(CN)C(O)C(O)C4O)c4ccccc34)C(=O)NC2=O)c2ccccc21 (stereo not drawn) [Example 66],3000 nM,–,9000 nM,37000 nM,240 nM,4400 nM,30000 nM,–,–,–,–,–,–,–,–,–
